Test results as given in patent publication US9801960B2, “Probe for a biological specimen and labelling method and screening method using the probe” (CANON KABUSHIKI KAISHA, priority 2008, dated 2017).

Columns and labels:
[1] = test system: Zebrafish juveniles; assay: In vivo labelling of Zebrafish juveniles with probe for biological specimen; set-up: key to Staining property: +++: stained; −: no stained; key to Fluorescence sensitivity: +++: strongly observed; ++: moderately observed; +: weakly observed; −: no stained; settings: 1 hour; for Site(s) to be labelled: 10 ng/mL in water, stereoscopic microscope; for Fluorescence sensitivity / Staining property: 10 ng/mL; for Fluorescence sensitivity: fluorescence intensity visually evaluated; for Staining property: visually evaluated
Procedure, shortened: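 Five zebrafish juveniles were immersed in distilled water containing staining compound at 10 ng/mL (DMSO solution) for 1 hour. They were then washed three times with Egg Water, immobilised in 3% methylcellulose and imaged by stereomicroscope. Staining and fluorescence intensity were scored visually on a +++ to − scale.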

[2] = Storage stability of staining compound solution in DMSO; type: physicochemical; settings: 10 ng/mL in DMSO, closed glass container, normal temperature, 1 month; rate of change of absorbance and fluorescence intensity
Procedure, shortened: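 Compounds held as 10 ng/mL DMSO solutions in closed glass containers at normal temperature for 1 month. Rates of change in absorbance and fluorescence intensity at a given wavelength versus start were scored: +++ <5%, ++ 5–15%, − >15%.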

[3] = Excitation and fluorescence emission wavelength measurement; type: physicochemical; set-up: Stokes shift (λem − λex): unit not given here; settings: aqueous solution: 10 mg/mL solution in DMSO diluted 500-fold with purified water
Protocol: It should be noted that the excitation wavelength and the fluorescence emission wavelength of the staining compound were determined by measuring an aqueous solution, which had been obtained by diluting 500-fold a 10 mg/mL solution of the staining compound in DMSO with purified water, with a fluorescence spectrophotometer FL 4500 manufactured by Hitachi High-Technologies Corporation.

Row | Structure (SMILES) | Site(s) to be labelled [1] | Fluorescence sensitivity [1] | Staining property [1] | Storage stability [2] | Excitation wavelength λex [3] | Fluorescence emission wavelength λem [3] | Stokes shift (λem − λex) [3]
1 | CCN1C(=O)/C(=c2/s/c(=C/c3ccc4c(c3)C3CCCC3N4CC)c(=O)n2CC(=O)O)SC1=S (stereo not shown) [Dye 110] | blood vessel | +++ | +++ | +++ (rates of change of the absorbance and the fluorescence intensity are less than 5%, and thus, the storage stability is highly excellent) | 623 nm | 671 nm | 48
2 | CSc1cccc(N2c3ccc(/C=C4/SC(=S)N(CC(=O)O)C4=O)cc3C3CCCC32)c1 (stereo not shown) [Dye 115] | blood vessel, gallbladder, and gastrointestinal | +++ | +++ | +++ (rates of change of the absorbance and the fluorescence intensity are less than 5%, and thus, the storage stability is highly excellent) | 520 nm | 640 nm | 120
3 | O=C(O)CN1C(=O)/C(=C\c2cc(Br)c3c(c2)C2CCCC2N3Cc2ccccc2)SC1=S (stereo not shown) [Dye 116] | blood vessel, gallbladder, and gastrointestinal | ++ | +++ | +++ (rates of change of the absorbance and the fluorescence intensity are less than 5%, and thus, the storage stability is highly excellent) | 486 nm | 606 nm | 120
4 | CCN1c2ccc(/C=C3/SC(=S)N(CCC(=O)O)C3=O)cc2C2CCCC21 (stereo not shown) [Dye 123] | gallbladder and gastrointestinal tract | +++ | +++ | +++ (rates of change of the absorbance and the fluorescence intensity are less than 5%, and thus, the storage stability is highly excellent) | 564 nm | 651 nm | 87
5 | CCN1c2ccc(/C=C/c3sc4ccccc4[n+]3CC(=O)O)cc2C2CCCC21 (stereo not shown) [Dye 124] | nose | +++ | +++ | +++ (rates of change of the absorbance and the fluorescence intensity are less than 5%, and thus, the storage stability is highly excellent) | 605 nm | 618 nm | 13
6 | COc1ccc(N2c3ccc(/C=C4/SC(=S)N(CCC(=O)O)C4=O)cc3C3CCCC32)cc1 (stereo not shown) [Dye 127] | blood vessel, liver, and gastrointestinal tract | +++ | +++ | +++ (rates of change of the absorbance and the fluorescence intensity are less than 5%, and thus, the storage stability is highly excellent) | 564 nm | 651 nm | 87
7 | COc1ccc(N2c3ccc(/C=C4\C(=O)N(c5ccccc5)N=C4C(=O)O)cc3C3CCCC32)cc1 (stereo not shown) [Dye 128] | blood vessel, liver, and gastrointestinal tract | ++ | +++ | +++ (rates of change of the absorbance and the fluorescence intensity are less than 5%, and thus, the storage stability is highly excellent) | 530 nm | 690 nm | 160
8 | O=C(O)CCN1C(=O)/C(=C\c2ccc3c(c2)C2CCCC2N3c2ccccc2)SC1=S (stereo not shown) [Dye 129] | blood vessel, gallbladder, and gastrointestinal | +++ | +++ | +++ (rates of change of the absorbance and the fluorescence intensity are less than 5%, and thus, the storage stability is highly excellent) | 522 nm | 611 nm | 89
9 | O=C(O)CCN1C(=O)/C(=C\c2ccc3c(c2)C2CCCC2N3c2ccccc2)SC1=S (stereo not shown) [Dye 130] | blood vessel, liver, and gastrointestinal tract | +++ | +++ | +++ (rates of change of the absorbance and the fluorescence intensity are less than 5%, and thus, the storage stability is highly excellent) | 541 nm | 619 nm | 78
10 | COc1ccc(N2c3ccc(/C=C(/C#N)C(=O)O)cc3C3CCCC32)cc1 (stereo not shown) [Dye 131] | liver and gastrointestinal tract | +++ | +++ | +++ (rates of change of the absorbance and the fluorescence intensity are less than 5%, and thus, the storage stability is highly excellent) | 440 nm | 580 nm | 140
11 | C=CCN1C(=O)/C(=c2\s/c(=C/c3ccc4c(c3)C3CCCC3N4c3ccc(OC)cc3)c(=O)n2CC(=O)O)SC1=S (stereo not shown) [Dye 132] | blood vessel | +++ | +++ | +++ (rates of change of the absorbance and the fluorescence intensity are less than 5%, and thus, the storage stability is highly excellent) | 530 nm | 680 nm | 150
12 | C=CCN1C(=O)/C(=c2\s/c(=C/c3ccc4c(c3)C3CCCC3N4c3ccccc3)c(=O)n2CC(=O)O)SC1=S (stereo not shown) [Dye 133] | blood vessel | +++ | +++ | +++ (rates of change of the absorbance and the fluorescence intensity are less than 5%, and thus, the storage stability is highly excellent) | 510 nm | 690 nm | 180
13 | CSc1ccc(N2c3ccc(/C=C(/C#N)C(=O)O)cc3C3CCCC32)cc1 (stereo not shown) [Dye 134] | blood vessel | +++ | +++ | +++ (rates of change of the absorbance and the fluorescence intensity are less than 5%, and thus, the storage stability is highly excellent) | 440 nm | 600 nm | 160
14 | CSc1ccc(N2c3ccc(/C=C(/C#N)C(=O)O)cc3C3CCCC32)cc1 (stereo not shown) [Dye 135] | blood vessel | +++ | +++ | +++ (rates of change of the absorbance and the fluorescence intensity are less than 5%, and thus, the storage stability is highly excellent) | 430 nm | 600 nm | 170
15 | C[n+]1c(/C=c2\s/c(=C/c3ccc4c(c3)C3CCCC3N4c3ccc(C=C(c4ccccc4)c4ccccc4)cc3)c(=O)n2CC(=O)O)sc2ccccc21 (stereo not shown) [Dye 136] | gastrointestinal tract | +++ | +++ | +++ (rates of change of the absorbance and the fluorescence intensity are less than 5%, and thus, the storage stability is highly excellent) | 560 nm | 760 nm | 200
16 | CCn1c(=O)/c(=C\c2ccc3c(c2)C2CCCC2N3c2ccccc2)s/c1=C1/SC(=S)N(CC(=O)O)C1=O (stereo not shown) [Dye 137] | gallbladder and gastrointestinal tract | +++ | +++ | +++ (rates of change of the absorbance and the fluorescence intensity are less than 5%, and thus, the storage stability is highly excellent) | 590 nm | 700 nm | 110
17 | CCN1C(=O)/C(=c2\s/c(=C/c3ccc4c(c3)C3CCCC3N4c3cccc(SC)c3)c(=O)n2CC(=O)O)SC1=S (stereo not shown) [Dye 138] | gastrointestinal tract | +++ | +++ | +++ (rates of change of the absorbance and the fluorescence intensity are less than 5%, and thus, the storage stability is highly excellent) | 540 nm | 690 nm | 150
18 | CC[N+]1=C(C=c2s/c(=C/c3ccc4c(c3)C3CCCC3N4c3ccccc3)c(=O)n2CC(=O)O)C(C)(C)c2ccccc21 (stereo not shown) [Dye 139] | nose | +++ | +++ | +++ (rates of change of the absorbance and the fluorescence intensity are less than 5%, and thus, the storage stability is highly excellent) | 570 nm | 640 nm | 70
19 | O=C(O)CN1C(=O)/C(=C2C=C/C(=C\c3ccc4c(c3)C3CCCC3N4c3ccccc3)C\2)SC1=S (stereo not shown) [Dye 140] | gastrointestinal tract | +++ | +++ | +++ (rates of change of the absorbance and the fluorescence intensity are less than 5%, and thus, the storage stability is highly excellent) | 510 nm | 650 nm | 140
